Assay results from patent US20250295579A1, “SKIN CARE COMPOSITION AND USES THEREOF” (S-BIOMEDIC NV, priority 2022, published 2025).

How the values were obtained:
Assay in all cases: Influence of cosmetic ingredients on C. acnes growth in 96-well plates (OD600)
Format in all cases: cell-based, Cutibacterium acnes
[1] = tested on: C. acnes A1 strain; conditions: PBS 1% w/v peptone
Procedure: (§1) One day before the experiment: starter bacterial cultures of C. acnes A1, D1, H1 and K8 strains from the working cell bank (WCB) glycerol stocks were prepared in a final volume of 15 ml. The C. acnes strains were isolated from healthy volunteers and they were characterized for their growth, 16S and SLST sequence to identify the specific strain. The volumes of WCB were 1 ml for A1 and 300 μl for D1, H1, and K8. The cultures were incubated overnight at 37° C.
(§2) At the day of the experiment, after 24 h incubation, inoculums were taken out of the incubator and homogenized with vortex. 50 μl aliquots were separated from each inoculum to 1.5 ml tubes and their OD600 was measured by Nanodrop.
(§3) Each aliquot was measured twice and its OD600 was determined by calculating the mean value. The tubes were centrifuged (3000 rcf, 5 min) and the supernatant was discarded. The pellet was resuspended in 15 ml of PBS (phosphate buffered saline). This washing, consisting of centrifugation, discarding the supernatant, and resuspension was repeated. Then, the OD600 was adjusted in PBS to 2 for each strain. Small aliquots were separated and read on Nanodrop again at the end of this process to ensure a starting OD600 of 2 (+/−0.2) in the bacterial cultures.
(§4) All the ingredients were tested in either of the two different media: PBS 3% w/v Glucose and PBS 1% w/v Peptone. Additionally, all strains were grown on PBS and PBS 3% w/v Glucose 1% w/v Peptone, as negative and positive control, respectively.
(§5) Medium was prepared at 2.5×concentration and then diluted to 1× when mixed with the ingredient and inoculum into the test plates.
(§6) PBS 7.5% w/v Glucose media was filter sterilized (Millipore pump). 50% w/v Peptone diluted in ultrapure water (Milli-Q) was prepared, autoclaved and then diluted to 2.5% w/v with PBS. PBS 7.5% w/v Glucose 2.5% w/v peptone media was prepared diluting 50% Peptone on filtered PBS 7.125% Glucose.
(§7) The range of concentrations tested was based on the concentration that the chosen compound could have in the final cosmetic product. Three different concentrations were tested for each ingredient: maximum concentration, minimum concentration and a concentration in the middle between the maximum and minimum concentration (half of the highest one).
(§8) All compounds were prepared on milliQ water. 50 ml of stocks for each ingredient were prepared at double of the highest concentration to be tested. After solubilization, the ingredients were filter sterilized.
(§9) The experiment was performed in transparent 96-well plates. Each one of them contained one media (either peptone or glucose), one strain inoculum and either of the ingredients. The final volume in each well was 200 μl: 100 μl of 2× ingredient, 80 μl of 2.5× medium and 20 μl of bacterial inoculum of OD600. Triplicates were done for every condition. Controls without ingredient and without bacteria were included in this experiment to detect possible contaminations.
(§10) One 96-well 2 ml deep well-plate was used for each batch. The double concentrated ingredients were distributed manually on the deep well plate and the corresponding serial dilutions were performed on PBS with an automatic multichannel pipette. Then, the content of each deep well plate was distributed to 8 different 96-standard well plate with Zephyr SPE workstation (automated liquid handler).
(§11) 100 μl of ingredient per well were transferred to each plate. The zephyr program contained a resuspension step on the deep well plate and a step in which the tips leaned on the sides of each well of the plates to ensure the accurate volume disposal.
(§12) Once the 100 μl of ingredient were transferred to each plate, 80 μl of either Glucose or Peptone medium was poured into the plate with Multidrop Combi Plate dispenser (Thermo Fisher). The multidrop was also used to dispense 20 μl per well of the corresponding strain inoculum, which was previously prepared as described in the previous part. […]

[2] = tested on: C. acnes D1 strain
Procedure: as §1, §2, §3, §4, §5, §6, §7, §8, §9, §10, §11, §12

[3] = tested on: C. acnes H1 strain
Procedure: as §1, §2, §3, §4, §5, §6, §7, §8, §9, §10, §11, §12

[4] = tested on: C. acnes K8 strain
Procedure: as §1, §2, §3, §4, §5, §6, §7, §8, §9, §10, §11, §12

[5] = 1% v/v glycerol, PBS 1% w/v peptone, FIG. 1
[6] = 3% w/v sodium lactate, PBS 1% w/v peptone, FIG. 3
[7] = 1% w/v sorbitol, PBS 1% w/v peptone, FIG. 2
[8] = 0.075% w/v sodium cetaryl sulphate, PBS 3% w/v glucose, FIG. 5

Question: What does the source list for `OCC(O)CO` [Glycerol]?
Answer: improvement of growth compared to the peptone control condition ([1]; 1% v/v glycerol, FIG. 1): four; improvement of growth compared to the peptone control condition [2, 5]: four; improvement of growth compared to the peptone control condition [3, 5]: four; improvement of growth compared to the peptone control condition [4, 5]: four

Question: For `CC(O)C(=O)[O-].[Na+]` (stereo not drawn) [Sodium lactate, sodium lactate], which effect on growth ([1]; 3% w/v sodium lactate, FIG. 3) is on record?
Answer: Its effect on growth is “improved the growth”.

Question: And the effect on growth [2, 6]?
Answer: Its effect on growth is “improved the growth”.

Question: What about the effect on growth [3, 6] of the same compound?
Answer: Its effect on growth is “improved the growth”.

Question: What about the effect on growth [4, 6] of the same compound?
Answer: The effect on growth was “improved the growth of the four tested strains, with a higher effect on the strain K8”.

Question: For `OC[C@@H](O)[C@@H](O)[C@H](O)[C@@H](O)CO` [Sorbitol], which effect on growth ([1]; 1% w/v sorbitol, FIG. 2) is on record?
Answer: Its effect on growth is “improved the growth”.

Question: What about the effect on growth [2, 7] of the same compound?
Answer: The effect on growth was “improved the growth”.

Question: What about the “growth improved by a factor” value [3, 7] of the same compound?
Answer: The value was 4.5.

Question: What about the effect on growth [4, 7] of the same compound?
Answer: Its effect on growth is “improved the growth”.

Question: Which results are given for “sodium cetearyl sulphate [Sodium cetaryl sulphate]”?
Answer: effect on growth [2, 8]: selectively and significantly improved the growth; effect on growth [3, 8]: selectively and significantly improved the growth; effect on growth [4, 8]: Negative effect
